PubChem BioAssay AID330 (DTP/NCI, 2004)
Several values for one entry are separate records, joined by “and”; a condition that tells them apart may be missing. Identical values can stand only once. Toxic doses and inconclusive results are not listed.

Test system: P388 leukemia ip, CD2F1 mice, survival T/C
Assay: NCI In Vivo Anticancer Drug Screen. Data for tumor model P388 Leukemia (intraperitoneal) in CD2F1 (CDF1) mice
Conditions: endpoint: median survival time, higher = longer survival
In short: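 Mice carrying the transplanted tumor received test compound or vehicle. Survival was recorded in each group, and the value is the treated-group measurement divided by that of the vehicle-treated control group.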

[1] = dose: 6.25 mg/kg/injection, schedule: Q01DX009 (ip), vehicle: saline
[2] = dose: 12.5 mg/kg/injection, schedule: Q01DX009 (ip), vehicle: saline
[3] = dose: 50.0 mg/kg/injection, schedule: Q01DX009 (ip), vehicle: saline
[4] = dose: 12.5 mg/kg/injection, schedule: Q01DX005 (ip), vehicle: Klucel (hydroxypropylcellulose) (HPC)
[5] = dose: 25.0 mg/kg/injection, schedule: Q01DX005 (ip), vehicle: Klucel (hydroxypropylcellulose) (HPC)
[6] = dose: 25.0 mg/kg/injection, schedule: Q01DX009 (ip), vehicle: Klucel (hydroxypropylcellulose) (HPC)
[7] = dose: 50.0 mg/kg/injection, schedule: Q01DX009 (ip), vehicle: Klucel (hydroxypropylcellulose) (HPC)
[8] = dose: 100.0 mg/kg/injection, schedule: Q01DX009 (ip), vehicle: Klucel (hydroxypropylcellulose) (HPC)
[9] = dose: 200.0 mg/kg/injection, schedule: Q01DX009 (ip), vehicle: Klucel (hydroxypropylcellulose) (HPC)
[10] = dose: 50.0 mg/kg/injection, schedule: Q01DX005 (ip), vehicle: saline with Tween-80
[11] = dose: 100.0 mg/kg/injection, schedule: Q01DX005 (ip), vehicle: saline with Tween-80

SMILES: CC(=O)Nc1ccc(N=Nc2c(C)nn(C(=N)N)c2C)cc1
- T/C [1]: 100 % of control and 103 % of control
- T/C [2]: 108 % of control and 109 % of control and 93 % of control
- T/C (dose: 25.0 mg/kg/injection, schedule: Q01DX009 (ip), vehicle: saline): 114 % of control
- T/C [3]: 123 % of control
- T/C (dose: 50.0 mg/kg/injection, schedule: Q04DX003 (ip), vehicle: saline): 98 % of control
- T/C (dose: 100.0 mg/kg/injection, schedule: Q04DX003 (ip), vehicle: saline): 110 % of control
- T/C (dose: 200.0 mg/kg/injection, schedule: Q04DX003 (ip), vehicle: saline): 122 % of control
- T/C (dose: 300.0 mg/kg/injection, schedule: Q04DX003 (ip), vehicle: saline): 121 % of control

SMILES: FC(F)(F)c1cc(Cl)nc(Cl)n1
- T/C (dose: 6.0 mg/kg/injection, schedule: Q01DX005 (ip), vehicle: saline with Tween-80): 106 % of control
- T/C (dose: 12.0 mg/kg/injection, schedule: Q01DX005 (ip), vehicle: saline with Tween-80): 97 % of control
- T/C (dose: 25.0 mg/kg/injection, schedule: Q01DX005 (ip), vehicle: saline with Tween-80): 92 % of control

SMILES: O=NNc1ccc([N+](=O)[O-])cn1
- T/C (dose: 3.12 mg/kg/injection, schedule: Q01DX009 (ip), vehicle: water): 107 % of control
- T/C [1]: 106 % of control and 96 % of control
- T/C (dose: 6.25 mg/kg/injection, schedule: Q01DX009 (ip), vehicle: water): 96 % of control
- T/C [2]: 122 % of control and 123 % of control
- T/C (dose: 12.5 mg/kg/injection, schedule: Q01DX009 (ip), vehicle: water): 102 % of control
- T/C (dose: 25.0 mg/kg/injection, schedule: Q01DX009 (ip), vehicle: water): 105 % of control and 88 % of control
- T/C [3]: 176 % of control

SMILES: COC(=O)C1C2CC3c4[nH]c5cc(OC)c(Br)cc5c4CCN3CC2CC(OC(=O)c2cc(OC)c(OC)c(OC)c2)C1OC (stereo unspecified)
- T/C (dose: 3.75 mg/kg/injection, schedule: Q01DX005 (ip), vehicle: Klucel (hydroxypropylcellulose) (HPC)): 104 % of control
- T/C (dose: 7.5 mg/kg/injection, schedule: Q01DX005 (ip), vehicle: Klucel (hydroxypropylcellulose) (HPC)): 94 % of control
- T/C (dose: 15.0 mg/kg/injection, schedule: Q01DX005 (ip), vehicle: Klucel (hydroxypropylcellulose) (HPC)): 104 % of control
- T/C (dose: 30.0 mg/kg/injection, schedule: Q01DX005 (ip), vehicle: Klucel (hydroxypropylcellulose) (HPC)): 108 % of control

SMILES: CCn1c2ccccc2c2cc(N=Nc3cc4ccccc4[nH]3)ccc21
- T/C (dose: 50.0 mg/kg/injection, schedule: Q01DX009 (ip), vehicle: saline with Tween-80): 115 % of control
- T/C (dose: 100.0 mg/kg/injection, schedule: Q01DX009 (ip), vehicle: saline with Tween-80): 113 % of control
- T/C (dose: 200.0 mg/kg/injection, schedule: Q01DX009 (ip), vehicle: saline with Tween-80): 113 % of control

SMILES: CCCCCNc1ncnc2c(C)[nH]nc12
- T/C [4]: 105 % of control
- T/C [5]: 98 % of control
- T/C (dose: 50.0 mg/kg/injection, schedule: Q01DX005 (ip), vehicle: Klucel (hydroxypropylcellulose) (HPC)): 91 % of control
- T/C (dose: 100.0 mg/kg/injection, schedule: Q01DX005 (ip), vehicle: Klucel (hydroxypropylcellulose) (HPC)): 90 % of control
- T/C (dose: 200.0 mg/kg/injection, schedule: Q01DX005 (ip), vehicle: Klucel (hydroxypropylcellulose) (HPC)): 90 % of control

SMILES: CCCCCCCCC(=O)c1c(OC)oc(/C=N/NC(N)=O)cc1=O
- T/C [6]: 92 % of control
- T/C [7]: 89 % of control
- T/C [8]: 92 % of control
- T/C [9]: 91 % of control

SMILES: CN(C)c1ncnc2nc(Cl)[nH]c12
- T/C (dose: 6.25 mg/kg/injection, schedule: Q01DX005 (ip), vehicle: Klucel (hydroxypropylcellulose) (HPC)): 95 % of control
- T/C [4]: 112 % of control
- T/C [5]: 108 % of control

SMILES: CCOC(=O)C(Nc1cc([N+](=O)[O-])ccc1C(=O)OC(C)C)(OC(C)C)C(=O)OCC
- T/C (dose: 100.0 mg/kg/injection, schedule: Q04DX002 (ip), vehicle: Klucel (hydroxypropylcellulose) (HPC)): 90 % of control
- T/C (dose: 200.0 mg/kg/injection, schedule: Q04DX002 (ip), vehicle: Klucel (hydroxypropylcellulose) (HPC)): 91 % of control
- T/C (dose: 400.0 mg/kg/injection, schedule: Q04DX002 (ip), vehicle: Klucel (hydroxypropylcellulose) (HPC)): 90 % of control

SMILES: Cc1ccc2c(Nc3ccc(NS(C)(=O)=O)cc3)c3ccccc3nc2c1C
- T/C (dose: 0.59 mg/kg/injection, schedule: Q01DX009 (ip), vehicle: saline with Tween-80): 110 % of control
- T/C (dose: 5.0 mg/kg/injection, schedule: Q01DX009 (ip), vehicle: other): 154 % of control
- T/C (dose: 10.0 mg/kg/injection, schedule: Q01DX009 (ip), vehicle: other): 165 % of control
- T/C (dose: 19.4 mg/kg/injection, schedule: Q04DX003 (ip), vehicle: water): 123 % of control
- T/C (dose: 20.0 mg/kg/injection, schedule: Q01DX009 (ip), vehicle: other): 197 % of control
- T/C (dose: 22.0 mg/kg/injection, schedule: Q04DX003 (ip), vehicle: saline with Tween-80): 154 % of control
- T/C (dose: 33.0 mg/kg/injection, schedule: Q04DX003 (ip), vehicle: saline with Tween-80): 168 % of control
- T/C (dose: 75.0 mg/kg/injection, schedule: Q04DX003 (ip), vehicle: saline with Tween-80): 195 % of control and 218 % of control
- T/C (dose: 90.0 mg/kg/injection, schedule: Q04DX003 (ip), vehicle: water): 155 % of control
- T/C (dose: 150.0 mg/kg/injection, schedule: Q04DX003 (ip), vehicle: saline with Tween-80): 254 % of control
- T/C (dose: 300.0 mg/kg/injection, schedule: Q04DX003 (ip), vehicle: saline with Tween-80): 86 % of control

SMILES: COC(=O)NC(=S)Nc1nncs1
- T/C (dose: 25.0 mg/kg/injection, schedule: Q04DX003 (ip), vehicle: saline with Tween-80): 101 % of control
- T/C (dose: 50.0 mg/kg/injection, schedule: Q04DX003 (ip), vehicle: saline with Tween-80): 105 % of control
- T/C (dose: 100.0 mg/kg/injection, schedule: Q04DX003 (ip), vehicle: saline with Tween-80): 105 % of control

SMILES: C/C=C/C(C)C1OC1(C)C(O)C1COC(=O)C(O)C(OC)C(C)C(=O)C(C)C(O)/C(C)=C/C(C)C(=O)CC(O)C(C)C1=O (stereo unspecified)
- T/C (dose: 0.39 micrograms/kg/injection, schedule: Q01DX005 (ip), vehicle: saline): 106 % of control
- T/C (dose: 0.78 micrograms/kg/injection, schedule: Q01DX005 (ip), vehicle: saline): 119 % of control
- T/C (dose: 1.56 micrograms/kg/injection, schedule: Q01DX005 (ip), vehicle: saline): 123 % of control
- T/C (dose: 3.12 micrograms/kg/injection, schedule: Q01DX005 (ip), vehicle: saline): 119 % of control
- T/C (dose: 6.25 micrograms/kg/injection, schedule: Q01DX005 (ip), vehicle: saline): 113 % of control and 123 % of control

SMILES: Oc1cccc([C@@]23CCCC[C@H]2CN(CC2CC2)CC3)c1
- T/C [10]: 90 % of control
- T/C [11]: 111 % of control

SMILES: CCOC(=O)C1CCCCC12Nc1cccc3cccc(c13)N2 (stereo unspecified)
- T/C [10]: 95 % of control
- T/C [11]: 105 % of control
- T/C (dose: 200.0 mg/kg/injection, schedule: Q01DX005 (ip), vehicle: saline with Tween-80): 113 % of control

SMILES: C/C=C(\C)C(N)=O
- T/C [3]: 90 % of control
- T/C (dose: 100.0 mg/kg/injection, schedule: Q01DX009 (ip), vehicle: saline): 100 % of control
- T/C (dose: 200.0 mg/kg/injection, schedule: Q01DX009 (ip), vehicle: saline): 95 % of control

SMILES: Clc1ccc(Cl)c(NNc2cc(Cl)ccc2Cl)c1
- T/C [6]: 96 % of control
- T/C [7]: 91 % of control
- T/C [8]: 87 % of control
- T/C [9]: 102 % of control

SMILES: C=C/C(C)=C\CC/C(C)=C/c1cc(C(=O)O)co1
- T/C (dose: 4.0 mg/kg/injection, schedule: Q01DX009 (ip), vehicle: Klucel (hydroxypropylcellulose) (HPC)): 104 % of control
- T/C (dose: 8.0 mg/kg/injection, schedule: Q01DX009 (ip), vehicle: Klucel (hydroxypropylcellulose) (HPC)): 100 % of control
- T/C (dose: 16.0 mg/kg/injection, schedule: Q01DX009 (ip), vehicle: Klucel (hydroxypropylcellulose) (HPC)): 99 % of control
- T/C (dose: 32.0 mg/kg/injection, schedule: Q01DX009 (ip), vehicle: Klucel (hydroxypropylcellulose) (HPC)): 100 % of control

SMILES: COc1cccc2c1C(=N)c1c(O)c3c(c(O)c1C2=O)C[C@@](O)(C(O)CO)C[C@@H]3OC1CC(N2CCOCC2)C(O)C(C)O1 (stereo partly specified)
- T/C (dose: 3.12 mg/kg/injection, schedule: Q04DX003 (ip), vehicle: water): 112 % of control and 115 % of control
- T/C (dose: 6.25 mg/kg/injection, schedule: Q04DX003 (ip), vehicle: water): 118 % of control
- T/C (dose: 12.5 mg/kg/injection, schedule: Q04DX003 (ip), vehicle: water): 108 % of control and 120 % of control
- T/C (dose: 18.7 mg/kg/injection, schedule: Q04DX003 (ip), vehicle: water): 105 % of control
- T/C (dose: 50.0 mg/kg/injection, schedule: Q04DX003 (ip), vehicle: water): 115 % of control and 161 % of control and 221 % of control
- T/C (dose: 75.0 mg/kg/injection, schedule: Q04DX003 (ip), vehicle: water): 118 % of control
